In patent US9783536B2, “Nitrogen-containing heterocyclic compound or salt thereof” (FUJIFILM Corporation, priority 2013, dated 2017):
Where two headings read alike, the source gives them in different places.

Assays:
[1] = biological target: T1, GST fusion human ERK2 protein (Homo sapiens, UniProt P28482); test: ERK2 enzyme assay (2); type: biochemical; settings: read-out: ERK2 enzyme inhibitory activity (2)
T1 construct: purchased Carna Biosciences, Inc; host or cells: E. coli expression system
Method: In an ERK2 enzyme assay, GLUTATHIONE S-TRANSFERASE (GST) FUSION HUMAN ERK2 PROTEIN (manufactured by Carna Biosciences, Inc.), which was produced by using an E. coli expression system, was used.
12 μL of a reaction liquid (1.25 nmol/L ERK2, 100 mmol/L Hepes, 10 mmol/L MgCl2, 1.5 mmol/L DTT, 0.003% Brij35, pH 7.5) including ERK2 protein and a test compound having a predetermined concentration was allowed to stand at room temperature for 15 minutes. Then, 3 μL of a mixture liquid of FL-PEPTIDE8 (5-FAM-IPTSPITTTYFFFKKK-COOH) (manufactured by Caliper Life Sciences), which is substrate peptide, and ATP (manufactured by Sigma-Aldrich Co. LLC.) was added thereto such that the final concentrations thereof became 4.25 μmol/L and 1 mmol/L, respectively, and an enzyme reaction was performed by allowing to stand at 25° C. for 120 minutes.
After the reaction, the enzyme reaction was stopped by adding 30 μL of a reaction stopper liquid (100 mmol/L HEPES, 11.2 mmol/L EDTA, 5.6% Brij35, pH 7.5) including a 0.5% COATING REAGENT 8 (trade name, manufactured by Perkin Elmer Inc.) thereto. Then, phosphorylated peptide and non-phosphorylated peptide were separated using LABCHIP EZ READER (trade name, manufactured by Caliper Life Sciences), and the porportion of the phosphorylated peptide was quantified.
(§1) The inhibitory activities of the compounds were evaluated using IC50 (50% inhibitory concentration). The IC50 was calculated using XLFIT (trade name, manufactured by ID Business Solutions).

[2] = biological target: T2, human PI3Kα protein (Homo sapiens, UniProt P42336); test: PI3Kα enzyme assay (ADP-Glo); type: biochemical; settings: read-out: PI3Kα enzyme inhibitory activity
T2 construct: purchased Carna Biosciences, Inc; host or cells: baculovirus expression system
Method: In a PI3Kα enzyme assay, a product (manufactured by Carna Biosciences, Inc.) obtained by biotinylating a human PI3Kα protein produced by using a baculovirus expression system was used. In addition, in the detection of enzyme activity, ADP-GLO KINASE ASSAY (trade name, manufactured by PROMEGA Corporation) was used.
10 μL of a reaction liquid (4.5 nmol/L PI3Kα, 40 mmol/L Tris-HCl, 20 mmol/L MgCl2, 0.1% BSA, pH 7.5) including the human PI3Kα protein and a test compound having a predetermined concentration was allowed to stand at room temperature for 15 minutes. Then, 5 μL of a mixture liquid of L-α-phosphatidylinositol 4,5-diphosphate (PIP2) (manufactured by Sigma-Aldrich Co. LLC.) and ATP (manufactured by Sigma-Aldrich Co. LLC.), which are substrates, was added thereto such that final concentrations thereof became 50 μmol/L and 100 μmol/L, respectively, and an enzyme reaction was performed by allowing to stand at 25° C. for 60 minutes.
After the reaction, the enzyme reaction was stopped by adding 15 μL of an ADP-GLO REAGENT (trade name, manufactured by PROMEGA Corporation) thereto and allowing to stand at room temperature for 60 minutes. Then, 30 μL of a KINASE DETECTION REAGENT (trade name, manufactured by PROMEGA Corporation) was added thereto, followed by allowing to stand at room temperature for 40 minutes, and ADP produced by the enzyme reaction was quantified by emission intensity.
ENVISION (trade name, manufactured by Perkin Elmer Inc.) was used for the measurement of the emission intensity.
as §1

T1 sequence (P28482 whole entry, the tested form may be a part): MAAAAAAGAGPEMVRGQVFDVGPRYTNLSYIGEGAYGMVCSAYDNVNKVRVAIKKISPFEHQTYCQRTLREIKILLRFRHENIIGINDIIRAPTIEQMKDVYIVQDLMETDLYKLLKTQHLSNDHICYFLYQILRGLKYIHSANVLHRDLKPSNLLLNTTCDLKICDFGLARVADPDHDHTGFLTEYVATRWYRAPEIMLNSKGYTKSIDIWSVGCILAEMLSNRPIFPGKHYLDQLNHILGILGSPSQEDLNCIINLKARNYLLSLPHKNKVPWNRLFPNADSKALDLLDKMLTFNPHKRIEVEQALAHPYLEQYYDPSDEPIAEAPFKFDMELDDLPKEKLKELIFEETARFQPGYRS
T2 sequence (P42336 whole entry): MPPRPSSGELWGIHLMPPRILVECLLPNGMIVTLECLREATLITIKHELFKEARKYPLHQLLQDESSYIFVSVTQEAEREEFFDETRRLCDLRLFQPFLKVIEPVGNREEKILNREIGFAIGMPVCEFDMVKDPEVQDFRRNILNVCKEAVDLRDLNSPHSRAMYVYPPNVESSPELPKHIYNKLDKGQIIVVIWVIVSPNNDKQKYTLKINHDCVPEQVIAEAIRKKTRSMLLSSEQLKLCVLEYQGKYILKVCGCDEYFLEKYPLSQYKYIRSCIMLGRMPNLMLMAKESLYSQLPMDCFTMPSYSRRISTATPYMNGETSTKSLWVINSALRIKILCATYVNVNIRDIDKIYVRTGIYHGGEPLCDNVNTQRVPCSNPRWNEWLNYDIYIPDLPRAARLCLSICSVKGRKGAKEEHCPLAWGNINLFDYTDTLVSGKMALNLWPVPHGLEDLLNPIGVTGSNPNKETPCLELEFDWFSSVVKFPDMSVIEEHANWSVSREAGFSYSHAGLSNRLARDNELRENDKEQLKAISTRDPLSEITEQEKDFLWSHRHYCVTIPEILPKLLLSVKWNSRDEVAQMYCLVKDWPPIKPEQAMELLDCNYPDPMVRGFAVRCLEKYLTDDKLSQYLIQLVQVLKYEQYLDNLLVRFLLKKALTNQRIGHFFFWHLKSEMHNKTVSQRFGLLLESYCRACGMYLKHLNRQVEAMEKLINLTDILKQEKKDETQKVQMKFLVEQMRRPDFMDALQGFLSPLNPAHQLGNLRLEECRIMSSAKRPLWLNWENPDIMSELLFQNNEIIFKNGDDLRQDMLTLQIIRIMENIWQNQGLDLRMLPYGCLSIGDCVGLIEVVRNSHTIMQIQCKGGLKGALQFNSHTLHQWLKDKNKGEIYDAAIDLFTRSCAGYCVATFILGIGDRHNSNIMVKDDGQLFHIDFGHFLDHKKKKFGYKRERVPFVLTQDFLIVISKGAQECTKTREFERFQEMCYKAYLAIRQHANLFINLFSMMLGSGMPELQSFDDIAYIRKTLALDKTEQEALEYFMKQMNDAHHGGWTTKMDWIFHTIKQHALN
T2 sequence (P27986 whole entry partner): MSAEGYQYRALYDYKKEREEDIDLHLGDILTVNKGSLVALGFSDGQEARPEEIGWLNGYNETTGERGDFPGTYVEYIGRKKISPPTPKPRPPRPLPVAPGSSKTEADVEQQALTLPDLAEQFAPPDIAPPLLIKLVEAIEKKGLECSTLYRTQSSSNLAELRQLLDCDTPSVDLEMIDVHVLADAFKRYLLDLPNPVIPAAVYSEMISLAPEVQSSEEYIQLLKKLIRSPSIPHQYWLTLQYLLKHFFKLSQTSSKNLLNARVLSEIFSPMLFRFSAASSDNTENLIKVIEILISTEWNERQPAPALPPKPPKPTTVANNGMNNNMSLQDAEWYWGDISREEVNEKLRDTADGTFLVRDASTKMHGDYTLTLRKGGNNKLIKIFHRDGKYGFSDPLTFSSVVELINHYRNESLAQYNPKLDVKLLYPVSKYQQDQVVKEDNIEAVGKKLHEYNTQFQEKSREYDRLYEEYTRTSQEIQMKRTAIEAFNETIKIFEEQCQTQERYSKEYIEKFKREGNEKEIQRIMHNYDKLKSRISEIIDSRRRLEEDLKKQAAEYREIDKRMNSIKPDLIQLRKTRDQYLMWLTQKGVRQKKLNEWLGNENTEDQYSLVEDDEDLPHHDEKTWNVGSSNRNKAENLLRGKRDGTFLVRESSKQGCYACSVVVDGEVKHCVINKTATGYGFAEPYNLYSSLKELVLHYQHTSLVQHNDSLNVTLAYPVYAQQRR

| IC50 ([1]; ERK2 enzyme assay (2)) | IC50 [2] | IC50 [1] | Structure (SMILES) |
| --- | --- | --- | --- |
| < 1 µM | < 1 µM |  | CC(C)c1cnnc(Nc2ccc3ncc(-c4cn(C)nc4-c4ccnnc4)cc3n2)c1 [Example 0843, N-(5-isopropylpyridazin-3-yl)-7-(1-methyl-3-(pyridazin-4-yl)-1H-pyrazol-4-yl)-1,5-naphthyridine-2-amine] |
| < 1 µM | 1 to 10 µM |  | CC(C)c1cnnc(Nc2ccc3ncc(-c4cncn4C)cc3n2)c1 [Example 0509, N-(5-isopropylpyridazin-3-yl)-7-(1-methyl-1H-imidazol-5-yl)-1,5-naphthyridine-2-amine] |
| < 1 µM | < 1 µM |  | CCCn1cc(-c2cnc3ccc(Nc4cc(C(C)C)cnn4)nc3c2)cn1 [Example 0441] |
| < 1 µM | 1 to 10 µM |  | Cc1ncccc1-c1cnc2ccc(Nc3cc(C(C)C)cnn3)nc2c1 [Example 0599] |
| < 1 µM | < 1 µM |  | Cc1cc(-c2nn(C)cc2-c2cnc3ccc(Nc4cc(C(C)C)cnn4)nc3c2)cc(C)n1 [Example 0748, 7-(3-(2,6-Dimethylpyridin-4-yl)-1-methyl-1H-pyrazol-4-yl)-N-(5-isopropylpyridazin-3-yl)-1,5-naphthyridine-2-amine] |
|  | < 1 µM | < 1 µM | CC(C)c1cnnc(Nc2ccc3ncc(-c4cn(C)nc4CN4CCN(c5ccncc5)CC4)cc3n2)c1 [Example 0909] |
| < 1 µM | < 1 µM |  | CC(C)c1cnnc(Nc2ccc3ncc(-c4cn(C)nc4C4CCOCC4)cc3n2)c1 [Example 0772] |
|  | < 1 µM | < 1 µM | CCOc1c(-c2cnn(C)c2)cnc2ccc(Nc3cc(C(C)C)cnn3)nc12 [Example 0951, 8-Ethoxy-N-(5-isopropylpyridazin-3-yl)-7-(1-methyl-1H-pyrazol-4-yl)-1,5-naphthyridine-2-amine] |
| < 1 µM | < 1 µM |  | CC(=O)N1CC=C(c2cnc3ccc(Nc4cc(C(C)C)cnn4)nc3c2)CC1 [Example 0882, 1-(4-(6-((5-isopropylpyridazin-3-yl)amino)-1,5-naphthyridin-3-yl)-5,6-dihydropyridine-1(2H)-yl)ethanone] |
| 10 to 50 µM | 10 to 50 µM |  | COCC1(Nc2cnc3ccc(Nc4cc(C(C)C)cnn4)nc3c2)CCC1 [Example 0889] |
| < 1 µM | < 1 µM |  | Cn1cc(-c2cnc3ccc(Nc4cc(C5CCC5)cnn4)nc3c2)cn1 [Example 0577, N-(5-cyclobutylpyridazin-3-yl)-7-(1-methyl-1H-pyrazol-4-yl)-1,5-naphthyridine-2-amine] |
| < 1 µM | < 1 µM |  | CC(C)c1cnnc(Nc2ccc3ncc(-c4cnn(CCCN5CC(OCCF)C5)c4)cc3n2)c1 [Example 0713, 7-(1-(3-(3-(2-Fluoroethoxy)azetidin-1-yl)propyl)-1H-pyrazol-4-yl)-N-(5-isopropylpyridazin-3-yl)-1,5-naphthyridine-2-amine] |
| < 1 µM | < 1 µM |  | CC(C)c1cnnc(Nc2ccc3ncc(-c4cnn(CCCN5CC(NC(=O)C(F)(F)F)C5)c4)cc3n2)c1 [Example 0696] |
| < 1 µM | < 1 µM |  | Cn1cc(-c2cnc3ccc(Nc4cc(CC5CCCCC5)cnn4)nc3c2)cn1 [Example 0586] |
| < 1 µM | < 1 µM |  | CC(C)c1cnnc(Nc2ccc3ncc(-c4cn(C)nc4COC4CNC4)cc3n2)c1 [Example 0822, 7-(3-((Azetidin-3-yloxy)methyl)-1-methyl-1H-pyrazol-4-yl)-N-(5-isopropylpyridazin-3-yl)-1,5-naphthyridine-2-amine] |
| < 1 µM | < 1 µM |  | COCCOc1cc(-c2nn(C)cc2-c2cnc3ccc(Nc4cc(C(C)C)cnn4)nc3c2)ccn1 [Example 0750, N-(5-isopropylpyridazin-3-yl)-7-(3-(2-(2-methoxyethoxyl)pyridin-4-yl)-1-methyl-1H-pyrazol-4-yl)-1,5-naphthyridine-2-amine] |
| < 1 µM | < 1 µM |  | CC(C)c1cnnc(Nc2ccc3ncc(-c4ccc(=O)n(CCCN5CCOCC5)c4)cc3n2)c1 [Example 0618] |
| < 1 µM | < 1 µM |  | CN(C)c1cnnc(Nc2ccc3ncc(-c4cnn(C)c4)cc3n2)c1 [Example 0518] |

Second part, the compound before the results:

| Structure (SMILES) | IC50 ([1]; ERK2 enzyme assay (2)) | IC50 [2] | IC50 [1] |
| --- | --- | --- | --- |
| CC(C)c1cnnc(Nc2ccc3ncc(-c4cn(C)nc4-c4ccc(OCC(=O)N(C)C)cc4)cc3n2)c1 [Example 0777, 2-(4-(4-(6-((5-Isopropylpyridazin-3-yl)amino)-1,5-naphthyridin-3-yl)-1-methyl-1H-pyrazol-3-yl)phenoxy)-N,N-dimethylacetamide] | < 1 µM | < 1 µM |  |
| CC(C)c1cnnc(Nc2ccc3ncc(N4CCC(C#N)C4)cc3n2)c1 (centres unmarked) [Example 0897] | < 1 µM | < 1 µM |  |
| CCC(CC)c1cnnc(Nc2ccc3ncc(-c4cnn(C)c4)cc3n2)c1 [Example 0585] | < 1 µM | < 1 µM |  |
| CC(C)c1cnnc(Nc2ccc3ncc(-c4cn(C)nc4NC4CCCCCC4)cc3n2)c1 [Example 0949] |  | 1 to 10 µM | 1 to 10 µM |
| CC(C)c1cnnc(Nc2ccc3ncc(-c4cnn(CC(F)(F)CN5CCCC5)c4)cc3n2)c1 [Example 0735, 7-(1-(2,2-Difluoro-3-(pyrrolidin-1-yl)propyl)-1H-pyrazol-4-yl)-N-(5-isopropylpyridazin-3-yl)-1,5-naphthyridine-2-amine] | < 1 µM | < 1 µM |  |
| COc1ncccc1Cn1cc(-c2cnc3ccc(Nc4cc(C(C)C)cnn4)nc3c2)cn1 [Example 0454] | < 1 µM | < 1 µM |  |
| CC(C)c1cnnc(Nc2ccc3ncc(-c4cn(C)nc4-c4ccc(N(C)C)nc4)cc3n2)c1 [Example 0793] | 1 to 10 µM | < 1 µM |  |
| CC(C)c1cnnc(Nc2ccc3ncc(/C=C/c4cccnc4)cc3n2)c1 [Example 0648, (E)-N-(5-isopropylpyridazin-3-yl)-7-(2-(pyridin-3-yl)vinyl)-1,5-naphthyridine-2-amine] | < 1 µM | < 1 µM |  |
| COC(CN1CC(F)(F)C1)Cn1cc(-c2cnc3ccc(Nc4cc(C(C)C)cnn4)nc3c2)cn1 (centres unmarked) [Example 0814, 7-(1-(3-(3,3-difluoroazetidin-1-yl)-2-methoxypropyl)-1H-pyrazol-4-yl)-N-(5-isopropylpyridazin-3-yl)-1,5-naphthyridine-2-amine] | < 1 µM | < 1 µM |  |
| CC(C)c1cnnc(Nc2ccc3ncc(-c4cn(C)nc4NC4CCCCC4)cc3n2)c1 [Example 0830, 7-(3-(cyclohexylamino)-1-methyl-1H-pyrazol-4-yl)-N-(5-isopropylpyridazin-3-yl)-1,5-naphthyridine-2-amine] | < 1 µM | < 1 µM |  |
| CC(=O)N1CC(OCCn2cc(-c3cnc4ccc(Nc5cc(C(C)C)cnn5)nc4c3)cn2)C1 [Example 0754, 1-(3-(2-(4-(6-((5-isopropylpyridazin-3-yl)amino)-1,5-naphthyridin-3-yl)-1H-pyrazol-1-yl)ethoxy)azetidin-1-yl)ethanone] | < 1 µM | < 1 µM |  |
| CC(C)c1cnnc(Nc2ccc3ncc(NS(C)(=O)=O)cc3n2)c1 [Example 0840, N-(6-((5-isopropylpyridazin-3-yl)amino)-1,5-naphthyridin-3-yl)methane sulfonamide] | 1 to 10 µM | 1 to 10 µM |  |
| Cc1cccc(Cn2cc(-c3cnc4ccc(Nc5cc(C(C)C)cnn5)nc4c3)cn2)n1 [Example 0411, N-(5-isopropylpyridazin-3-yl)-7-(1-((6-methylpyridin-2-yl)methyl)-1H-pyrazol-4-yl)-1,5-naphthyridine-2-amine] | < 1 µM | < 1 µM |  |
